ChEMBL document CHEMBL1201862, “PubChem BioAssay data set” (2004)
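Step 1: Grow cells in 96-well plates. Step 2: Expose to compound for 48 hours at 5 concentrations. Step 3: Interpolate endpoints linearly; if unreached, use highest concentration. The concentration for 50% growth inhibition is given as GI50.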 Active and inactive are the calls of the source. Cut-off read from the data, not from the text of the source: active = GI50 up to about 1.1 µM and inactive = higher.

Legend:
Assay in all cases: DTP human tumour cell line panel, 48 h
IGROV-1 = test system: IGROV-1
OVCAR-5 = test system: OVCAR-5
HL-60 = test system: HL-60
UO-31 = test system: UO-31
MOLT-4 = test system: MOLT-4
SN12C = test system: SN12C
SR = test system: SR
PC-3 = test system: PC-3
EKVX = test system: EKVX
OVCAR-4 = test system: OVCAR-4
HOP-62 = test system: HOP-62
M14 = test system: M14
HT-29 = test system: HT-29
SNB-19 = test system: SNB-19
T47D = test system: T47D
SK-MEL-2 = test system: SK-MEL-2
SF-539 = test system: SF-539
SK-MEL-28 = test system: SK-MEL-28
UACC-257 = test system: UACC-257
U-251 = test system: U-251

COc1cccc(/C=C2\CCC(CN(C)C)C2=O)c1 (stereo not given)
GI50 (IGROV-1): 8.47 µM (inactive) | GI50 (OVCAR-5): 12.1 µM (inactive) | GI50 (HL-60): 0.638 µM (active) | GI50 (UO-31): 9.51 µM (inactive) | GI50 (MOLT-4): 1.44 µM (inactive) | GI50 (SN12C): 5.71 µM (inactive) | GI50 (SR): 1.69 µM (inactive) | GI50 (PC-3): 12.4 µM (inactive) | GI50 (EKVX): 19.3 µM (inactive) | GI50 (OVCAR-4): 9.82 µM (inactive) | GI50 (HOP-62): 12.1 µM (inactive) | GI50 (M14): 3.6 µM (inactive) | GI50 (HT-29): 6.05 µM (inactive) | GI50 (SNB-19): 13.5 µM (inactive) | GI50 (T47D): 2.76 µM (inactive) | GI50 (SK-MEL-2): 11.8 µM (inactive) | GI50 (SF-539): 13.9 µM (inactive) | GI50 (SK-MEL-28): 3.03 µM (inactive) | GI50 (UACC-257): 3.85 µM (inactive) | GI50 (U-251): 12.3 µM (inactive)

Cc1occc1C(=S)Nc1ccc(Cl)c(/C=N/OC(C)(C)C)c1
GI50 (IGROV-1): 23.8 µM (inactive) | GI50 (OVCAR-5): 15 µM (inactive) | GI50 (HL-60): 17.3 µM (inactive) | GI50 (UO-31): 13.9 µM (inactive) | GI50 (MOLT-4): 9.51 µM (inactive) | GI50 (SN12C): 15.1 µM (inactive) | GI50 (SR): 12.9 µM (inactive) | GI50 (PC-3): 16 µM (inactive) | GI50 (EKVX): 18.4 µM (inactive) | GI50 (OVCAR-4): 18.3 µM (inactive) | GI50 (HOP-62): 19.9 µM (inactive) | GI50 (M14): 18.2 µM (inactive) | GI50 (HT-29): 13.7 µM (inactive) | GI50 (SNB-19): 18.7 µM (inactive) | GI50 (T47D): 16.5 µM (inactive) | GI50 (SK-MEL-2): 17.9 µM (inactive) | GI50 (SF-539): 31.2 µM (inactive) | GI50 (SK-MEL-28): 17.7 µM (inactive) | GI50 (UACC-257): 16.7 µM (inactive) | GI50 (U-251): 13.9 µM (inactive)

O=C(Nc1ccc(Cl)cc1)NS(=O)(=O)c1ccc2c(c1)CCC2 [SULOFENUR]
GI50 (IGROV-1): 12.3 µM (inactive) | GI50 (OVCAR-5): > 43.8 µM (inactive) | GI50 (HL-60): 2.4 µM (inactive) | GI50 (UO-31): 25.1 µM (inactive) | GI50 (MOLT-4): 26.4 µM (inactive) | GI50 (SN12C): 39.2 µM (inactive) | GI50 (SR): > 57 µM (inactive) | GI50 (PC-3): 19.1 µM (inactive) | GI50 (EKVX): 36.5 µM (inactive) | GI50 (OVCAR-4): 54.8 µM (inactive) | GI50 (HOP-62): 32.2 µM (inactive) | GI50 (M14): 37.9 µM (inactive) | GI50 (HT-29): 61.1 µM (inactive) | GI50 (SNB-19): 40.9 µM (inactive) | GI50 (T47D): 16.4 µM (inactive) | GI50 (SK-MEL-2): 43.8 µM (inactive) | GI50 (SF-539): 28.3 µM (inactive) | GI50 (SK-MEL-28): 43.9 µM (inactive) | GI50 (UACC-257): 50.7 µM (inactive) | GI50 (U-251): 30.7 µM (inactive)

CC(=O)OCc1cncn1S(=O)(=O)c1ccc(C)cc1
GI50 (IGROV-1): > 74 µM (inactive) | GI50 (OVCAR-5): > 100 µM (inactive) | GI50 (HL-60): 10.8 µM (inactive) | GI50 (UO-31): > 100 µM (inactive) | GI50 (MOLT-4): 32 µM (inactive) | GI50 (SN12C): > 91.2 µM (inactive) | GI50 (SR): 11.4 µM (inactive) | GI50 (PC-3): > 100 µM (inactive) | GI50 (EKVX): > 100 µM (inactive) | GI50 (OVCAR-4): > 76.7 µM (inactive) | GI50 (HOP-62): > 100 µM (inactive) | GI50 (M14): 42.2 µM (inactive) | GI50 (HT-29): 33.7 µM (inactive) | GI50 (SNB-19): > 100 µM (inactive) | GI50 (T47D): 79.4 µM (inactive) | GI50 (SK-MEL-2): > 100 µM (inactive) | GI50 (SF-539): 86.9 µM (inactive) | GI50 (SK-MEL-28): > 100 µM (inactive) | GI50 (UACC-257): > 100 µM (inactive) | GI50 (U-251): > 87.7 µM (inactive)

Nc1nc(Cl)c(N)c(NCC2(CO)CC2)n1
GI50 (IGROV-1): > 100 µM (inactive) | GI50 (OVCAR-5): > 100 µM (inactive) | GI50 (HL-60): > 100 µM (inactive) | GI50 (UO-31): > 100 µM (inactive) | GI50 (MOLT-4): > 100 µM (inactive) | GI50 (SN12C): > 100 µM (inactive) | GI50 (SR): > 100 µM (inactive) | GI50 (PC-3): > 100 µM (inactive) | GI50 (EKVX): > 100 µM (inactive) | GI50 (OVCAR-4): > 100 µM (inactive) | GI50 (HOP-62): > 100 µM (inactive) | GI50 (M14): > 100 µM (inactive) | GI50 (HT-29): > 100 µM (inactive) | GI50 (SNB-19): > 100 µM (inactive) | GI50 (T47D): > 100 µM (inactive) | GI50 (SK-MEL-2): > 100 µM (inactive) | GI50 (SF-539): > 100 µM (inactive) | GI50 (SK-MEL-28): > 100 µM (inactive) | GI50 (UACC-257): > 100 µM (inactive) | GI50 (U-251): > 100 µM (inactive)

CN(C)C(=S)Oc1ccc2ccc(=O)oc2c1
GI50 (IGROV-1): > 100 µM (inactive) | GI50 (OVCAR-5): > 100 µM (inactive) | GI50 (HL-60): > 100 µM (inactive) | GI50 (UO-31): > 100 µM (inactive) | GI50 (MOLT-4): > 100 µM (inactive) | GI50 (SN12C): > 100 µM (inactive) | GI50 (SR): > 100 µM (inactive) | GI50 (PC-3): > 100 µM (inactive) | GI50 (EKVX): > 100 µM (inactive) | GI50 (OVCAR-4): > 100 µM (inactive) | GI50 (HOP-62): > 100 µM (inactive) | GI50 (M14): > 100 µM (inactive) | GI50 (HT-29): > 100 µM (inactive) | GI50 (SNB-19): > 100 µM (inactive) | GI50 (T47D): > 100 µM (inactive) | GI50 (SK-MEL-2): > 100 µM (inactive) | GI50 (SF-539): > 100 µM (inactive) | GI50 (SK-MEL-28): > 100 µM (inactive) | GI50 (UACC-257): > 100 µM (inactive) | GI50 (U-251): > 100 µM (inactive)

O=P1(Oc2ccccc2)N(CCCl)CCN1c1ccccc1 (stereo not given)
GI50 (IGROV-1): 42.7 µM (inactive) | GI50 (OVCAR-5): > 100 µM (inactive) | GI50 (HL-60): > 100 µM (inactive) | GI50 (UO-31): > 100 µM (inactive) | GI50 (MOLT-4): 61.8 µM (inactive) | GI50 (SN12C): > 100 µM (inactive) | GI50 (SR): 79.3 µM (inactive) | GI50 (PC-3): > 100 µM (inactive) | GI50 (EKVX): 80.4 µM (inactive) | GI50 (OVCAR-4): 23.4 µM (inactive) | GI50 (HOP-62): > 100 µM (inactive) | GI50 (M14): > 100 µM (inactive) | GI50 (HT-29): > 100 µM (inactive) | GI50 (SNB-19): > 100 µM (inactive) | GI50 (T47D): > 100 µM (inactive) | GI50 (SK-MEL-2): > 100 µM (inactive) | GI50 (SF-539): > 100 µM (inactive) | GI50 (SK-MEL-28): > 100 µM (inactive) | GI50 (UACC-257): 79.6 µM (inactive) | GI50 (U-251): > 100 µM (inactive)

Cn1cc(NC(=O)c2cc(NC(=O)CNC(=N)N)cn2C)cc1C(=O)NCCC(=N)N [NETROPSIN CHLORIDE]
GI50 (IGROV-1): > 100 µM (inactive) | GI50 (OVCAR-5): > 100 µM (inactive) | GI50 (HL-60): > 100 µM (inactive) | GI50 (UO-31): > 100 µM (inactive) | GI50 (MOLT-4): > 100 µM (inactive) | GI50 (SN12C): > 100 µM (inactive) | GI50 (SR): > 100 µM (inactive) | GI50 (PC-3): > 100 µM (inactive) | GI50 (EKVX): > 100 µM (inactive) | GI50 (OVCAR-4): > 100 µM (inactive) | GI50 (HOP-62): > 100 µM (inactive) | GI50 (M14): > 100 µM (inactive) | GI50 (HT-29): > 100 µM (inactive) | GI50 (SNB-19): > 100 µM (inactive) | GI50 (T47D): > 100 µM (inactive) | GI50 (SK-MEL-2): > 100 µM (inactive) | GI50 (SF-539): > 100 µM (inactive) | GI50 (SK-MEL-28): > 100 µM (inactive) | GI50 (UACC-257): > 100 µM (inactive) | GI50 (U-251): > 100 µM (inactive)
